What was measured:
Assay in all cases: relative viability (nuclei count vs DMSO), 5 days (fraction); higher = more cells survive
[1] = compound: C[C@@]1(C(=O)Nc2ccc(F)nc2)CCCN1c1nc(Nc2cc(C3CC3)n[nH]2)c2cccn2n1 + Cc1cc(Nc2cc(N3CCN(C)CC3)nc(Sc3ccc(NC(=O)C4CC4)cc3)n2)n[nH]1 [Tozasertib] (partner 0.1 µM)
How it was run: (§1)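 Nuclei were stained with Hoechst during a one-step fixation (final 0.05% Triton X-100, 1% formaldehyde, 1 ug/ml Hoechst) carried out 5 days after dosing, then counted on 4× images. The cells, lung cancer lines in 1536-well plates, had been dosed by pin tool the day after seeding with one drug alone or a fixed anchor-drug dose plus five library-drug doses (not always all listed) in √10 steps. Relative viability is the nuclei count in treated wells divided by that in vehicle wells, and each value is the median of duplicate plates.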

[2] = compound: C[C@@]1(C(=O)Nc2ccc(F)nc2)CCCN1c1nc(Nc2cc(C3CC3)n[nH]2)c2cccn2n1 + Nc1ncn([C@H]2C[C@H](O)[C@@H](CO)O2)c(=O)n1 [Decitabine] (partner 2 µM)
How it was run: as §1

Motesanib + Lapatinib = compound: CC1(C)CNc2cc(NC(=O)c3cccnc3NCc3ccncc3)ccc21 [Motesanib] + CS(=O)(=O)CCNCc1ccc(-c2ccc3ncnc(Nc4ccc(OCc5cccc(F)c5)c(Cl)c4)c3c2)o1 [Lapatinib] (partner 2 µM)
How it was run: as §1

Motesanib + Olaparib = compound: CC1(C)CNc2cc(NC(=O)c3cccnc3NCc3ccncc3)ccc21 [Motesanib] + O=C(c1cc(Cc2n[nH]c(=O)c3ccccc23)ccc1F)N1CCN(C(=O)C2CC2)CC1 [Olaparib] (partner 8 µM)
How it was run: as §1

Cell Line: NCI-H838
- relative viability ([1]; first compound 0.04 µM): 0.249
- relative viability ([1]; first compound 0.1265 µM): 0.221
- relative viability ([1]; first compound 0.4 µM): 0.166
- relative viability ([1]; first compound 1.265 µM): 0.259
- relative viability ([2]; first compound 0.04 µM): 0.461
- relative viability ([2]; first compound 0.1265 µM): 0.467
- relative viability ([2]; first compound 0.4 µM): 0.395
- relative viability ([2]; first compound 1.265 µM): 0.335
- relative viability (Motesanib + Lapatinib; first compound 0.01 µM): 0.98
- relative viability (Motesanib + Lapatinib; first compound 0.03162 µM): 1.03
- relative viability (Motesanib + Lapatinib; first compound 0.1 µM): 0.914
- relative viability (Motesanib + Lapatinib; first compound 0.3162 µM): 1.19
- relative viability (Motesanib + Lapatinib; first compound 1 µM): 1.02
- relative viability (Motesanib + Olaparib; first compound 0.01 µM): 0.778
- relative viability (Motesanib + Olaparib; first compound 0.03162 µM): 0.765
- relative viability (Motesanib + Olaparib; first compound 0.1 µM): 0.792
- relative viability (Motesanib + Olaparib; first compound 0.3162 µM): 0.746
- relative viability (Motesanib + Olaparib; first compound 1 µM): 0.804

Cell Line: NCI-H1355
- relative viability ([1]; first compound 0.04 µM): 0.551
- relative viability ([1]; first compound 0.1265 µM): 0.438
- relative viability ([1]; first compound 0.4 µM): 0.323
- relative viability ([1]; first compound 1.265 µM): 0.526
- relative viability ([2]; first compound 0.04 µM): 0.388
- relative viability ([2]; first compound 0.1265 µM): 0.313
- relative viability ([2]; first compound 0.4 µM): 0.337
- relative viability ([2]; first compound 1.265 µM): 0.352
- relative viability (Motesanib + Lapatinib; first compound 0.01 µM): 1.07
- relative viability (Motesanib + Lapatinib; first compound 0.03162 µM): 1.01
- relative viability (Motesanib + Lapatinib; first compound 0.1 µM): 1.04
- relative viability (Motesanib + Lapatinib; first compound 0.3162 µM): 1.09
- relative viability (Motesanib + Lapatinib; first compound 1 µM): 0.962
- relative viability (Motesanib + Olaparib; first compound 0.01 µM): 0.726
- relative viability (Motesanib + Olaparib; first compound 0.03162 µM): 0.771
- relative viability (Motesanib + Olaparib; first compound 0.1 µM): 0.773
- relative viability (Motesanib + Olaparib; first compound 0.3162 µM): 0.747
- relative viability (Motesanib + Olaparib; first compound 1 µM): 0.707

Cell Line: NCI-H1395
- relative viability ([1]; first compound 0.04 µM): 0.783
- relative viability ([1]; first compound 0.1265 µM): 0.741
- relative viability ([1]; first compound 0.4 µM): 0.74
- relative viability ([1]; first compound 1.265 µM): 0.61
- relative viability ([2]; first compound 0.04 µM): 0.7
- relative viability ([2]; first compound 0.1265 µM): 0.705
- relative viability ([2]; first compound 0.4 µM): 0.653
- relative viability ([2]; first compound 1.265 µM): 0.68
- relative viability (Motesanib + Lapatinib; first compound 0.01 µM): 0.925
- relative viability (Motesanib + Lapatinib; first compound 0.03162 µM): 1.03
- relative viability (Motesanib + Lapatinib; first compound 0.1 µM): 1.04
- relative viability (Motesanib + Lapatinib; first compound 0.3162 µM): 1.08
- relative viability (Motesanib + Lapatinib; first compound 1 µM): 0.959
- relative viability (Motesanib + Olaparib; first compound 0.01 µM): 0.442
- relative viability (Motesanib + Olaparib; first compound 0.03162 µM): 0.496
- relative viability (Motesanib + Olaparib; first compound 0.1 µM): 0.455
- relative viability (Motesanib + Olaparib; first compound 0.3162 µM): 0.493
- relative viability (Motesanib + Olaparib; first compound 1 µM): 0.468

Cell Line: NCI-H1437
- relative viability ([1]; first compound 0.04 µM): 0.382
- relative viability ([1]; first compound 0.1265 µM): 0.309
- relative viability ([1]; first compound 0.4 µM): 0.221
- relative viability ([1]; first compound 1.265 µM): 0.238
- relative viability ([2]; first compound 0.04 µM): 0.553
- relative viability ([2]; first compound 0.1265 µM): 0.517
- relative viability ([2]; first compound 0.4 µM): 0.521
- relative viability ([2]; first compound 1.265 µM): 0.432
- relative viability (Motesanib + Lapatinib; first compound 0.01 µM): 0.719
- relative viability (Motesanib + Lapatinib; first compound 0.03162 µM): 0.78
- relative viability (Motesanib + Lapatinib; first compound 0.1 µM): 0.756
- relative viability (Motesanib + Lapatinib; first compound 0.3162 µM): 0.9
- relative viability (Motesanib + Lapatinib; first compound 1 µM): 0.781
- relative viability (Motesanib + Olaparib; first compound 0.01 µM): 0.637
- relative viability (Motesanib + Olaparib; first compound 0.03162 µM): 0.631
- relative viability (Motesanib + Olaparib; first compound 0.1 µM): 0.63
- relative viability (Motesanib + Olaparib; first compound 0.3162 µM): 0.682
- relative viability (Motesanib + Olaparib; first compound 1 µM): 0.657

Cell Line: NCI-H1650
- relative viability ([1]; first compound 0.04 µM): 0.345
- relative viability ([1]; first compound 0.1265 µM): 0.29
- relative viability ([1]; first compound 0.4 µM): 0.258
- relative viability ([1]; first compound 1.265 µM): 0.255
- relative viability ([2]; first compound 0.04 µM): 0.348
- relative viability ([2]; first compound 0.1265 µM): 0.458
- relative viability ([2]; first compound 0.4 µM): 0.463
- relative viability ([2]; first compound 1.265 µM): 0.447
- relative viability (Motesanib + Lapatinib; first compound 0.01 µM): 0.807
- relative viability (Motesanib + Lapatinib; first compound 0.1 µM): 0.667
- relative viability (Motesanib + Lapatinib; first compound 0.3162 µM): 0.723
- relative viability (Motesanib + Lapatinib; first compound 1 µM): 0.735
- relative viability (Motesanib + Olaparib; first compound 0.01 µM): 0.746
- relative viability (Motesanib + Olaparib; first compound 0.03162 µM): 0.875
- relative viability (Motesanib + Olaparib; first compound 0.1 µM): 0.914
- relative viability (Motesanib + Olaparib; first compound 0.3162 µM): 0.632
- relative viability (Motesanib + Olaparib; first compound 1 µM): 0.843

Cell Line: NCI-H1651
- relative viability ([1]; first compound 0.04 µM): 0.639
- relative viability ([1]; first compound 0.1265 µM): 0.633
- relative viability ([1]; first compound 0.4 µM): 0.449
- relative viability ([1]; first compound 1.265 µM): 0.537
- relative viability ([2]; first compound 0.04 µM): 0.567
- relative viability ([2]; first compound 0.1265 µM): 0.527
- relative viability ([2]; first compound 0.4 µM): 0.565
- relative viability ([2]; first compound 1.265 µM): 0.45
- relative viability (Motesanib + Lapatinib; first compound 0.01 µM): 0.704
- relative viability (Motesanib + Lapatinib; first compound 0.03162 µM): 0.706
- relative viability (Motesanib + Lapatinib; first compound 0.1 µM): 0.699
- relative viability (Motesanib + Lapatinib; first compound 0.3162 µM): 0.921
- relative viability (Motesanib + Lapatinib; first compound 1 µM): 0.786
- relative viability (Motesanib + Olaparib; first compound 0.01 µM): 0.176
- relative viability (Motesanib + Olaparib; first compound 0.03162 µM): 0.192
- relative viability (Motesanib + Olaparib; first compound 0.1 µM): 0.213
- relative viability (Motesanib + Olaparib; first compound 0.3162 µM): 0.202
- relative viability (Motesanib + Olaparib; first compound 1 µM): 0.201

Cell Line: NCI-H1666
- relative viability ([1]; first compound 0.04 µM): 0.623
- relative viability ([1]; first compound 0.1265 µM): 0.558
- relative viability ([1]; first compound 0.4 µM): 0.465
- relative viability ([1]; first compound 1.265 µM): 0.415
- relative viability ([2]; first compound 0.04 µM): 0.66
- relative viability ([2]; first compound 0.1265 µM): 0.644
- relative viability ([2]; first compound 0.4 µM): 0.587
- relative viability ([2]; first compound 1.265 µM): 0.492
- relative viability (Motesanib + Lapatinib; first compound 0.01 µM): 0.882
- relative viability (Motesanib + Lapatinib; first compound 0.03162 µM): 0.709
- relative viability (Motesanib + Lapatinib; first compound 0.1 µM): 0.691
- relative viability (Motesanib + Lapatinib; first compound 0.3162 µM): 0.69
- relative viability (Motesanib + Lapatinib; first compound 1 µM): 0.667
- relative viability (Motesanib + Olaparib; first compound 0.01 µM): 0.743
- relative viability (Motesanib + Olaparib; first compound 0.03162 µM): 0.761
- relative viability (Motesanib + Olaparib; first compound 0.1 µM): 0.776
- relative viability (Motesanib + Olaparib; first compound 0.3162 µM): 0.851
- relative viability (Motesanib + Olaparib; first compound 1 µM): 0.705

Cell Line: NCI-H1734
- relative viability ([1]; first compound 0.04 µM): 0.234
- relative viability ([1]; first compound 0.1265 µM): 0.246
- relative viability ([1]; first compound 0.4 µM): 0.26
- relative viability ([1]; first compound 1.265 µM): 0.242
- relative viability ([2]; first compound 0.04 µM): 0.456
- relative viability ([2]; first compound 0.1265 µM): 0.389
- relative viability ([2]; first compound 0.4 µM): 0.405
- relative viability ([2]; first compound 1.265 µM): 0.437
- relative viability (Motesanib + Lapatinib; first compound 0.01 µM): 0.99
- relative viability (Motesanib + Lapatinib; first compound 0.03162 µM): 1.14
- relative viability (Motesanib + Lapatinib; first compound 0.1 µM): 1.03
- relative viability (Motesanib + Lapatinib; first compound 0.3162 µM): 1.14
- relative viability (Motesanib + Lapatinib; first compound 1 µM): 0.99
- relative viability (Motesanib + Olaparib; first compound 0.01 µM): 0.54
- relative viability (Motesanib + Olaparib; first compound 0.03162 µM): 0.686
- relative viability (Motesanib + Olaparib; first compound 0.1 µM): 0.72
- relative viability (Motesanib + Olaparib; first compound 0.3162 µM): 0.636
- relative viability (Motesanib + Olaparib; first compound 1 µM): 0.565

Cell Line: NCI-H1755
- relative viability ([1]; first compound 0.04 µM): 0.558
- relative viability ([1]; first compound 0.1265 µM): 0.528
- relative viability ([1]; first compound 0.4 µM): 0.472
- relative viability ([1]; first compound 1.265 µM): 0.545
- relative viability ([2]; first compound 0.04 µM): 0.698
- relative viability ([2]; first compound 0.1265 µM): 0.687
- relative viability ([2]; first compound 0.4 µM): 0.704
- relative viability ([2]; first compound 1.265 µM): 0.74
- relative viability (Motesanib + Lapatinib; first compound 0.01 µM): 1.02
- relative viability (Motesanib + Lapatinib; first compound 0.03162 µM): 1.05
- relative viability (Motesanib + Lapatinib; first compound 0.1 µM): 1.08
- relative viability (Motesanib + Lapatinib; first compound 0.3162 µM): 1.28
- relative viability (Motesanib + Lapatinib; first compound 1 µM): 0.997
- relative viability (Motesanib + Olaparib; first compound 0.01 µM): 0.795
- relative viability (Motesanib + Olaparib; first compound 0.03162 µM): 0.877
- relative viability (Motesanib + Olaparib; first compound 0.1 µM): 0.774
- relative viability (Motesanib + Olaparib; first compound 0.3162 µM): 0.923
- relative viability (Motesanib + Olaparib; first compound 1 µM): 0.9
